Laboratory results published in patent US20080009418A1, “Selective Inhibitors” (Alchemia LTD., priority 2004, published 2008).

Key:
[1] = molecular target: T1, Human δ-opioid (DOP) (Homo sapiens, UniProt P41143); test: Radioligand binding, human δ-opioid (DOP) membranes, FlashPlate, [3H]-Bremazocine; conditions: compound at 10 μM; for A1: inhibition of radioligand binding: [3H]-Bremazocine
T1 construct: purchased Perkin Elmer Biosignal
Summary of the method: (§1)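 Cloned human receptor membranes were coated onto FlashPlate wells and incubated with radioligand and compound (added from a 0.5 mM DMSO daughter plate) for 1 hour at room temperature in the dark. Scintillation counting gave percent inhibition, with DMSO defining total and reference ligand defining non-specific binding.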

[2] = molecular target: T2, Human κ-Opioid (KOP) (Homo sapiens, UniProt P41145); test: Radioligand binding, human κ-opioid (KOP) membranes, filtration, [3H]-Diprenorphine; conditions: compound at 10 μM; for A2: inhibition of radioligand binding: [3H]-Diprenorphine
T2 construct: purchased Perkin Elmer Biosignal
T2 sequence (P41145 whole entry): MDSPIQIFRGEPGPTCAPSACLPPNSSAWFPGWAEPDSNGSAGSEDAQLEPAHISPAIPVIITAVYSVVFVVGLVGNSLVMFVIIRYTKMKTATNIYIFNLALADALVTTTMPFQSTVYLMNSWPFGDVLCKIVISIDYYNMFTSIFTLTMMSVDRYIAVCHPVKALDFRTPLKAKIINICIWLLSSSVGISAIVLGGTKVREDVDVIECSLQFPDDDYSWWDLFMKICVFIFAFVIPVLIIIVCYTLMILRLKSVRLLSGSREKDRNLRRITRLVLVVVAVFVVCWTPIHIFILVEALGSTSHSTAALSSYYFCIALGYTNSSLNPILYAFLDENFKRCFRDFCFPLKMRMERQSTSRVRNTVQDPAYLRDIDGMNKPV
Summary of the method: (§2)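 Filtration binding on cloned human receptor membranes (1 Unit/well), [125I]-Substance P for NK1 and [3H]-Diprenorphine for KOP, 1 h at room temperature. Filters PEI-presoaked, washed with cold 50 mM Tris-HCl pH 7.4, counted by scintillation; percent inhibition calculated, reference ligand defining non-specific binding.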

[3] = molecular target: T3, Human Melanocortin (MC3) (Homo sapiens, UniProt P41968); test: Radioligand binding, human melanocortin MC3 membranes, FlashPlate, [125I]-NDP-αMSH; conditions: compound at 10 μM; for A3: inhibition of radioligand binding: [125I]-NDP-αMSH
T3 construct: purchased Perkin Elmer Biosignal
T3 sequence (P41968 whole entry): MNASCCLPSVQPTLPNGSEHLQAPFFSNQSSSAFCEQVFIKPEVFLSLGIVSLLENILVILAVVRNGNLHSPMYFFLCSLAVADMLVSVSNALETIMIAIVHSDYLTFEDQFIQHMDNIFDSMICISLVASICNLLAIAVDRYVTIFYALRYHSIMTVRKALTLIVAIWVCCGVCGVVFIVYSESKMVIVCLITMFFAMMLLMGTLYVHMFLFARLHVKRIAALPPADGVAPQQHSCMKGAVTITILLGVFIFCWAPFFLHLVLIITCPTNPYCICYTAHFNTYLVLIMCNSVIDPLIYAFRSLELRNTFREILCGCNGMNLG
Summary of the method: as §1

[4] = molecular target: T4, Human Melanocortin (MC4) (Homo sapiens, UniProt P32245); test: Radioligand binding, human melanocortin MC4 membranes, FlashPlate, [125I]-NDP-αMSH; conditions: compound at 10 μM; for A4: inhibition of radioligand binding: [125I]-NDP-αMSH
T4 construct: purchased Perkin Elmer Biosignal
T4 sequence (P32245 whole entry): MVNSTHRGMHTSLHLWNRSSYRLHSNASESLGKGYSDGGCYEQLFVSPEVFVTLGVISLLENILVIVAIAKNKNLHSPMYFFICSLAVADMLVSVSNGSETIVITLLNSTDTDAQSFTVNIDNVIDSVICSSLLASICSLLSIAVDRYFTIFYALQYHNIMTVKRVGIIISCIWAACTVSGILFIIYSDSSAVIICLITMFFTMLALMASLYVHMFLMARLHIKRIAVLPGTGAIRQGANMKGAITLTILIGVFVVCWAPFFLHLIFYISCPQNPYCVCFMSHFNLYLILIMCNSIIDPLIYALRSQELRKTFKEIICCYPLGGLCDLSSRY
Summary of the method: as §1

[5] = molecular target: T5, Human melanocortin (MC5) (Homo sapiens, UniProt P33032); test: Radioligand binding, human melanocortin MC5 membranes, FlashPlate, [125I]-NDP-αMSH; conditions: compound at 10 μM; for A5: inhibition of radioligand binding: [125I]-NDP-αMSH
T5 construct: purchased Perkin Elmer Biosignal
T5 sequence (P33032 whole entry): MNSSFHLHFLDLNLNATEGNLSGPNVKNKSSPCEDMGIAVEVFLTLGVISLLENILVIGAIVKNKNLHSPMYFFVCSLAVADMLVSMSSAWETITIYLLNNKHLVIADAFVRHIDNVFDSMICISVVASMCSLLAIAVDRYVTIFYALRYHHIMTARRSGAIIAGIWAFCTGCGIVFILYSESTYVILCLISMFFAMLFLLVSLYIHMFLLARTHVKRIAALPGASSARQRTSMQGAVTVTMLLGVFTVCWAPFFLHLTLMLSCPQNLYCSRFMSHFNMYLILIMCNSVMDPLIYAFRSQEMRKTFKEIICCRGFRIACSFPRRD
Summary of the method: as §1

[6] = molecular target: T6, Human melanin-concentrating hormone (MCH1) (Homo sapiens, UniProt Q99705); test: Radioligand binding, human melanin-concentrating hormone MCH1 membranes, FlashPlate, [125I]-S36057; conditions: compound at 10 μM
T6 construct: purchased Perkin Elmer Biosignal
T6 sequence (Q99705 whole entry): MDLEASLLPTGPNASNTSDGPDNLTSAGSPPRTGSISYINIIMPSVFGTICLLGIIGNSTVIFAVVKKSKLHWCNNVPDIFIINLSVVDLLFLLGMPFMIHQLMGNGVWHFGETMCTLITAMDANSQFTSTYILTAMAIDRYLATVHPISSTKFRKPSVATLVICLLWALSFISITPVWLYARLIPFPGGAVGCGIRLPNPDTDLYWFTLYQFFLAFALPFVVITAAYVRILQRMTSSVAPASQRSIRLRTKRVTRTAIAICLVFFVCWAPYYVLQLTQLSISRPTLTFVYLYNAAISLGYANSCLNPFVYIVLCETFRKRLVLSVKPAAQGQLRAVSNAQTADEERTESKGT
Summary of the method: as §1

[7] = molecular target: T7, Human μ-opioid (MOP) (Homo sapiens, UniProt P35372); test: Radioligand binding, human μ-opioid (MOP) membranes, FlashPlate, [3H]-Naloxone; conditions: compound at 10 μM; for A7: inhibition of radioligand binding: [3H]-Naloxone
T7 construct: purchased Perkin Elmer Biosignal
T7 sequence (P35372 whole entry): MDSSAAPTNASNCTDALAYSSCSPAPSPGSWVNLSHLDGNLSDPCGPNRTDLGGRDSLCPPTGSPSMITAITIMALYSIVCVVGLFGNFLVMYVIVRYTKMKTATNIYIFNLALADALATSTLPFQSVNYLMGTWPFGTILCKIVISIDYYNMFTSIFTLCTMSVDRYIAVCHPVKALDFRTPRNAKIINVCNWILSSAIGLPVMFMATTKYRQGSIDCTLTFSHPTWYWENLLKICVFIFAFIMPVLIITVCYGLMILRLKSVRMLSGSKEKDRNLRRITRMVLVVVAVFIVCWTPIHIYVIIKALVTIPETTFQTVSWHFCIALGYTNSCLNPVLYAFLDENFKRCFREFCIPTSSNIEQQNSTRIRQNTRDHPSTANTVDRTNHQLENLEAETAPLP
Summary of the method: as §1

[8] = molecular target: T8, Human neurokinin (NK1) (Homo sapiens, UniProt P25103); test: Radioligand binding, human neurokinin NK1 membranes, filtration, [125I]-Substance P; conditions: compound at 10 μM; for A8: inhibition of radioligand binding: [125I]-Substance P
T8 construct: purchased Perkin Elmer Biosignal
T8 sequence (P25103 whole entry): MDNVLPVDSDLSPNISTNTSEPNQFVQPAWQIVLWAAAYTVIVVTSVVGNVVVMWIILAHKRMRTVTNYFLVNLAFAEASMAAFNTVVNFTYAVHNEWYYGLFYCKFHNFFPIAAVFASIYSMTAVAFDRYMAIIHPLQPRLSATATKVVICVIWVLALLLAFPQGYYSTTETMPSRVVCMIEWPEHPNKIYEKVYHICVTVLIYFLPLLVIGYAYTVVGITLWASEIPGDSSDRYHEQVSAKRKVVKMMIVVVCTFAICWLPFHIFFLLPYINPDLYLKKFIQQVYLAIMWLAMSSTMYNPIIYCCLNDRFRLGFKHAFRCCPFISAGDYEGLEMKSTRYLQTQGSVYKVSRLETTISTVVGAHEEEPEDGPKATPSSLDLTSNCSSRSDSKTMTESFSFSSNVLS
Summary of the method: as §2

[9] = molecular target: T9, Human neuropeptide Y (NPY-Y1) (Homo sapiens, UniProt P25929); test: Radioligand binding, human neuropeptide Y NPY-Y1 membranes, FlashPlate, [125I]-PYY; conditions: compound at 10 μM; for A9: inhibition of radioligand binding: [125I]-PYY
T9 construct: purchased Perkin Elmer Biosignal
T9 sequence (P25929 1-384): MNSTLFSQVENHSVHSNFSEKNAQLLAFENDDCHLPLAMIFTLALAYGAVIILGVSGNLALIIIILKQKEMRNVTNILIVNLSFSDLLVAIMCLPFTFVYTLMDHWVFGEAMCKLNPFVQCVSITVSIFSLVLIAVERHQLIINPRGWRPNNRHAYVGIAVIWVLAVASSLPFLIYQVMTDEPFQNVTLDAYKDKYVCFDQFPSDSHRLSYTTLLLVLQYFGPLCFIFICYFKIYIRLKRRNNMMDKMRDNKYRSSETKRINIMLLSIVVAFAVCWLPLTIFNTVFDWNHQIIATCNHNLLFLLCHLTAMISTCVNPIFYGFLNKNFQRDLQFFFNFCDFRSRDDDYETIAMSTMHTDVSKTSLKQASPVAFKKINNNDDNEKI
Summary of the method: as §1

[10] = molecular target: T10, Human opioid (ORL1) (Homo sapiens, UniProt P41146); test: Radioligand binding, human opioid ORL1 membranes, FlashPlate, [125I]-Nociceptin; conditions: compound at 10 μM; for A10: inhibition of radioligand binding: [125I]-Nociceptin
T10 construct: purchased Perkin Elmer Biosignal
T10 sequence (P41146 whole entry): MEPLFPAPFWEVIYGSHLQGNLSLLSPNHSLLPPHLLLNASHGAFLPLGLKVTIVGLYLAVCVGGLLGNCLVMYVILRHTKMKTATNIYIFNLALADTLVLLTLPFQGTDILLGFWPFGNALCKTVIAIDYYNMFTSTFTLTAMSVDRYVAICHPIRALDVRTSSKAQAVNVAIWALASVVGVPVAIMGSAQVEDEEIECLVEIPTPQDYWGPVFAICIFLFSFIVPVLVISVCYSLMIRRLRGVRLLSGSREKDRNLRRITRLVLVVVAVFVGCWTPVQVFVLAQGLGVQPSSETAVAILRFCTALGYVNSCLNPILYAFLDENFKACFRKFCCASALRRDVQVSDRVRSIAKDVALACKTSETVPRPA
Summary of the method: as §1

[11] = molecular target: T11, Mouse urotensin (mUR2) (Mus musculus, UniProt Q8VIH9); test: Radioligand binding, mouse urotensin mUR2 membranes, FlashPlate, [125I]-Urotensin II; conditions: compound at 10 μM; for A11: inhibition of radioligand binding: [125I]-Urotensin II
T11 construct: purchased Perkin Elmer Biosignal
T11 sequence (Q8VIH9 1-385): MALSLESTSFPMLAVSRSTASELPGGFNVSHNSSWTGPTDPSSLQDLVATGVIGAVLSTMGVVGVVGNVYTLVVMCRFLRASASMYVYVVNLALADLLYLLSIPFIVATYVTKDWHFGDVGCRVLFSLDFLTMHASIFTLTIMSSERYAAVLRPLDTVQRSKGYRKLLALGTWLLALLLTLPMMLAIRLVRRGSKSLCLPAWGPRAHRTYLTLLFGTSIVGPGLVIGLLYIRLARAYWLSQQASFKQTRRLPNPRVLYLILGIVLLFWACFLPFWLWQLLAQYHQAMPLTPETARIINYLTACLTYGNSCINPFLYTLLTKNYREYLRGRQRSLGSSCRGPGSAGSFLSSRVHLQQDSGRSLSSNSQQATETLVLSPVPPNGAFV
Summary of the method: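 Cloned mouse urotensin (mUR2) receptor membranes from Perkin Elmer Biosignal were immobilized in FlashPlate microplates using a proprietary coating. Each well got 19.5 μl buffer, then 0.5 μl of DMSO, reference ligand, or compound. Adding 5 μl of [125I]-Urotensin II, diluted to 5× final concentration in binding buffer, started binding. Plates were sealed with TopSeal-A and incubated 1 hour at room temperature in the dark. Wells were counted for 30 seconds each on a TopCount after a 60-second delay, and percentage inhibition was calculated.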

[12] = [125I]-S36057, human MCH1 membranes, 10 µM

T1 sequence (P41143 whole entry): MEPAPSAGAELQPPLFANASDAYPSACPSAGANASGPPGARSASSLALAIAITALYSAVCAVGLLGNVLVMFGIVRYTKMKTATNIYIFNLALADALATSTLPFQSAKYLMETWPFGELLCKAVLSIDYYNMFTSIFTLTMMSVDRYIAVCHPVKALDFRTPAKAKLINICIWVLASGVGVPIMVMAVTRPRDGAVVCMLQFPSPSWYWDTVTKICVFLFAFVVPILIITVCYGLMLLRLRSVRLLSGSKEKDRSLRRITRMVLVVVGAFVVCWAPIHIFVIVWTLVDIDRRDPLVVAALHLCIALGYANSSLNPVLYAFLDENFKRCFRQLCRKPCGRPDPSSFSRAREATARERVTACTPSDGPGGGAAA

NCCCC(=O)NC1C(OCc2ccc3ccccc3c2)OC(COCc2ccc3ccccc3c2)C(O)C1OCc1ccccc1 (single isomer, unassigned) [compound 465]
A1: inhibition of radioligand binding ([1]; human DOP membranes): − (“−” indicates less than 50% inhibition at 10 μM)
A2: inhibition of radioligand binding ([2]; human KOP membranes): − (“−” indicates less than 50% inhibition at 10 μM)
A3: inhibition of radioligand binding ([3]; human MC3 membranes, 10 µM): − (“−” indicates less than 50% inhibition at 10 μM)
A4: inhibition of radioligand binding ([4]; human MC4 membranes, 10 µM): − (“−” indicates less than 50% inhibition at 10 μM)
A5: inhibition of radioligand binding ([5]; human MC5 membranes): + (“+” indicates greater than 50% inhibition at 10 μM)
A6: inhibition of radioligand binding [6, 12]: − (“−” indicates less than 50% inhibition at 10 μM)
A7: inhibition of radioligand binding ([7]; human MOP membranes): − (“−” indicates less than 50% inhibition at 10 μM)
A8: inhibition of radioligand binding ([8]; human NK1 membranes): + (“+” indicates greater than 50% inhibition at 10 μM)
A9: inhibition of radioligand binding ([9]; human NPY-Y1 membranes): − (“−” indicates less than 50% inhibition at 10 μM)
A10: inhibition of radioligand binding ([10]; human ORL1 membranes, 10 µM): − (“−” indicates less than 50% inhibition at 10 μM)
A11: inhibition of radioligand binding ([11]; mouse mUR2 membranes): − (“−” indicates less than 50% inhibition at 10 μM)

COC[C@H]1OC(OCCc2ccccc2)[C@H](NC(=O)CCCN)[C@@H](OCc2ccccc2)[C@@H]1O (some centres unmarked) [compound 47]
A1 radioligand binding inhibition ([1]; human δ-opioid (DOP) membranes): − (“−” indicates less than 50% inhibition at 10 μM)
A2 radioligand binding inhibition ([2]; human κ-opioid (KOP) membranes): − (“−” indicates less than 50% inhibition at 10 μM)
A3 radioligand binding inhibition ([3]; human melanocortin MC3 membranes): − (“−” indicates less than 50% inhibition at 10 μM)
A4 radioligand binding inhibition ([4]; human melanocortin MC4 membranes): − (“−” indicates less than 50% inhibition at 10 μM)
A5 radioligand binding inhibition ([5]; human melanocortin MC5 membranes): − (“−” indicates less than 50% inhibition at 10 μM)
A6 radioligand binding inhibition ([6]; human MCH1 membranes): − (“−” indicates less than 50% inhibition at 10 μM)
A7 radioligand binding inhibition ([7]; human μ-opioid (MOP) membranes): − (“−” indicates less than 50% inhibition at 10 μM)
A8 radioligand binding inhibition ([8]; human neurokinin NK1 membranes): + (“+” indicates greater than 50% inhibition at 10 μM)
A9 radioligand binding inhibition ([9]; human NPY-Y1 membranes): − (“−” indicates less than 50% inhibition at 10 μM)
A10 radioligand binding inhibition ([10]; human ORL1 membranes): − (“−” indicates less than 50% inhibition at 10 μM)
A11 radioligand binding inhibition ([11]; mouse urotensin mUR2 membranes): − (“−” indicates less than 50% inhibition at 10 μM)

COCC1OC(OCc2ccc3ccccc3c2)C(NC(=O)CNC(=N)N)C(OCc2ccc(-c3ccccc3)cc2)C1O (centres unmarked) [compound 242]
A1: inhibition of radioligand binding ([1]; FlashPlate): − (“−” indicates less than 50% inhibition at 10 μM)
A2: inhibition of radioligand binding ([2]; filtration): − (“−” indicates less than 50% inhibition at 10 μM)
A3: inhibition of radioligand binding ([3]; FlashPlate): + (“+” indicates greater than 50% inhibition at 10 μM)
A4: inhibition of radioligand binding ([4]; FlashPlate): + (“+” indicates greater than 50% inhibition at 10 μM)
A5: inhibition of radioligand binding ([5]; FlashPlate): + (“+” indicates greater than 50% inhibition at 10 μM)
A6: inhibition of radioligand binding ([6]; [125I]-S36057, FlashPlate): − (“−” indicates less than 50% inhibition at 10 μM)
A7: inhibition of radioligand binding ([7]; FlashPlate): − (“−” indicates less than 50% inhibition at 10 μM)
A8: inhibition of radioligand binding ([8]; filtration): + (“+” indicates greater than 50% inhibition at 10 μM)
A9: inhibition of radioligand binding ([9]; FlashPlate): − (“−” indicates less than 50% inhibition at 10 μM)
A10: inhibition of radioligand binding ([10]; FlashPlate): − (“−” indicates less than 50% inhibition at 10 μM)
A11: inhibition of radioligand binding ([11]; FlashPlate): − (“−” indicates less than 50% inhibition at 10 μM)

NCCC(=O)N[C@H]1C(OCc2ccc3ccccc3c2)O[C@H](COCc2ccc(Cl)cc2)[C@@H](O)[C@@H]1OCc1ccc2ccccc2c1 (some centres unmarked) [compound 446]
A1: inhibition of radioligand binding ([1]; human DOP membranes): − (“−” indicates less than 50% inhibition at 10 μM)
A2: inhibition of radioligand binding ([2]; human KOP membranes): − (“−” indicates less than 50% inhibition at 10 μM)
A3: inhibition of radioligand binding ([3]; human MC3 membranes, 10 µM): − (“−” indicates less than 50% inhibition at 10 μM)
A4: inhibition of radioligand binding ([4]; human MC4 membranes, 10 µM): − (“−” indicates less than 50% inhibition at 10 μM)
A5: inhibition of radioligand binding ([5]; human MC5 membranes): + (“+” indicates greater than 50% inhibition at 10 μM)
A6: inhibition of radioligand binding [6, 12]: − (“−” indicates less than 50% inhibition at 10 μM)
A7: inhibition of radioligand binding ([7]; human MOP membranes): − (“−” indicates less than 50% inhibition at 10 μM)
A8: inhibition of radioligand binding ([8]; human NK1 membranes): + (“+” indicates greater than 50% inhibition at 10 μM)
A9: inhibition of radioligand binding ([9]; human NPY-Y1 membranes): − (“−” indicates less than 50% inhibition at 10 μM)
A10: inhibition of radioligand binding ([10]; human ORL1 membranes): − (“−” indicates less than 50% inhibition at 10 μM)
A11: inhibition of radioligand binding ([11]; mouse mUR2 membranes): − (“−” indicates less than 50% inhibition at 10 μM)
